Laboratory results: patent publication US20260167673A1, “NOVEL POLYPEPTIDE, POLYPEPTIDE DERIVATIVE AND USE THEREOF” (NANJING ANJI BIOTECHNOLOGY CO., LTD., priority 2023, published 2026)
Marks after values point to notes of the source that are not given here. Where no end group is shown, it is not given here.

Key:
Type in all cases: cell-based
[1] = system: human neuroblastoma cells SH-SY5Y; assay: CCK8 proliferation inhibition, SH-SY5Y; details: 50 μM, 48 h
Experimental: (§1) Incubation was continued for 4 h in a cell incubator, an absorbance was measured at 450 nm, and a proliferation inhibition was calculated. Data was presented as mean±SD, and GraphPad Prism 5.0 statistical software was used. A t-test was used for comparison between two groups, while One-way Anova (Dunnett) was used for comparison among a plurality of groups.

[2] = system: human laryngeal epidermoid carcinoma cells HEp2; assay: CCK8 proliferation inhibition, HEp2; details: HEp2, 50 μM, 48 h
Experimental: as §1

[3] = system: human nasopharyngeal carcinoma cells CNE-2Z; assay: CCK8 proliferation inhibition, CNE-2Z; details: 50 μM, 48 h
Experimental: as §1

[4] = system: human esophageal cancer cells TE-13; assay: CCK8 proliferation inhibition, TE-13; details: TE-13, 50 μM, 48 h
Experimental: as §1

[5] = system: human papillary thyroid carcinoma cells NPPA87-1; assay: CCK8 proliferation inhibition, NPPA87-1; details: NPPA87-1, 50 μM, 48 h
Experimental: as §1

[6] = system: human giant cell lung cancer cells 95-D; assay: CCK8 proliferation inhibition, 95-D; details: 50 μM, 48 h
Experimental: as §1

[7] = system: human liver cancer cells HCCLM3; assay: CCK8 proliferation inhibition, HCCLM3; details: HCCLM3, 50 μM, 48 h
Experimental: as §1

[8] = system: human kidney clear cell adenocarcinoma cells 786-O; assay: CCK8 proliferation inhibition, 786-O; details: 50 μM, 48 h
Experimental: as §1

[9] = system: human breast cancer cells SK-BR-3; assay: CCK8 proliferation inhibition, SK-BR-3; details: SK-BR-3, 50 μM, 48 h
Experimental: as §1

[10] = system: human cervical cancer cells Hela; assay: CCK8 proliferation inhibition, Hela; details: 50 μM, 48 h
Experimental: as §1

[11] = system: human endometrial cancer cells RL-952; assay: CCK8 proliferation inhibition, RL-952; details: RL-952, 50 μM, 48 h
Experimental: as §1

[12] = system: human ovarian clear cell carcinoma cells ES-2; assay: CCK8 proliferation inhibition, ES-2; details: ES-2, 50 μM, 48 h
Experimental: as §1

[13] = system: human ovarian cancer cells SKOV3; assay: CCK8 proliferation inhibition, SKOV3 (Example 5); details: SKOV3, 50 μM, 48 h
Experimental: as §1

[14] = system: human small intestine cancer cells HIC; assay: CCK8 proliferation inhibition, HIC; details: 50 μM, 48 h
Experimental: as §1

[15] = system: human pancreatic cancer cells ASPC-1; assay: CCK8 proliferation inhibition, ASPC-1; details: ASPC-1, 50 μM, 48 h
Experimental: as §1

[16] = system: human prostate cancer cells PC-3; assay: CCK8 proliferation inhibition, PC-3; details: PC-3, 50 μM, 48 h
Experimental: as §1

[17] = system: human osteosarcoma cells MG63; assay: CCK8 proliferation inhibition, MG63; details: MG63, 50 μM, 48 h
Experimental: as §1

[18] = system: human peripheral blood B lymphocytes RPMI 8226 in multiple myeloma; assay: CCK8 proliferation inhibition, RPMI 8226; details: RPMI 8226, 50 μM, 48 h
Experimental: as §1

[19] = system: human T lymphoblastic leukemia cells Jurkat, Clone E6-1; assay: CCK8 proliferation inhibition, Jurkat, Clone E6-1; details: Clone E6-1, 50 μM, 48 h
Experimental: as §1

[20] = system: human liver cancer Hep3B cells; assay: Transwell metastasis inhibition, Hep3B; details: 50 μmol/L, 48 h
Experimental: Melanoma, cervical cancer, ovarian cancer, liver cancer, and lung cancer cells were seeded into transwell chambers, with 100 μL per well. Different doses of the HMMW micropeptide and the novel polypeptide HMMW15-51 were added to each chamber as a treatment group, while no drug was added to a blank group. Then, 0.6 mL of a complete culture medium containing 10% FBS was added to the lower chambers of the transwell to stimulate cell metastasis, and the cells were cultured at 5% CO2 and 37° C. for 48 h. The culture solution was discarded from the wells. The cells were fixed with methanol at room temperature for 30 min, stained with 0.1% crystal violet at room temperature for 10 min, and rinsed with clean water. The upper layer nonmetastatic cells were wiped off with a cotton swab. The cells were observed under a microscope, and four fields of view were selected to take photos and count the cells. A metastasis inhibition (MI) was calculated according to a formula: […]
where Ntest represents the number of cell metastases in the treatment group, and Ncontrol represents the number of cell metastases in the blank control group.
Data was presented as mean±SD, and GraphPad Prism 5.0 statistical software was used.

## MERAGVPGFSPRRSSVEAKMQSTSCSVRKSSTVTAWPAVVLLLSWGQRRGG [HMMW]
[1]
  Inhibition (%): 50.542 ± 4.982 %
  OD: 0.486 ± 0.049
[2]
  Inhibition (%): 42.416 ± 2.236 %
  OD: 0.504 ± 0.020
[3]
  Inhibition (%): 50.952 ± 4.312 %
  OD: 0.472 ± 0.042
[4]
  Inhibition (%): 53.060 ± 1.911 %
  OD: 0.389 ± 0.016
[5]
  Inhibition (%): 48.192 ± 2.999 %
  OD: 0.478 ± 0.028
[6]
  Inhibition (%): 59.757 ± 5.365 %
  OD: 0.442 ± 0.059
[7]
  Inhibition (%): 53.926 ± 7.634 %
  OD: 0.460 ± 0.076
[8]
  Inhibition (%): 62.624 ± 7.014 %
  OD: 0.413 ± 0.078
[9]
  Inhibition (%): 53.710 ± 4.902 %
  OD: 0.507 ± 0.054
[10]
  Inhibition (%): 52.644 ± 4.018 %
  OD: 0.493 ± 0.049
[11]
  Inhibition (%): 50.988 ± 3.897 %
  OD: 0.422 ± 0.034
[12]
  Inhibition (%): 51.916 ± 0.690 %
  OD: 0.464 ± 0.007
[13]
  Inhibition (%): 52.644 ± 4.018 %
  OD: 0.466 ± 0.040
[14]
  Inhibition (%): 50.213 ± 2.165 %
  OD: 0.507 ± 0.022
[15]
  Inhibition (%): 51.448 ± 4.377 %
  OD: 0.497 ± 0.045
[16]
  Inhibition (%): 50.341 ± 3.864 %
  OD: 0.509 ± 0.040
[17]
  Inhibition (%): 52.544 ± 2.562 %
  OD: 0.435 ± 0.024
[18]
  Inhibition (%): 52.930 ± 4.562 %
  OD: 0.578 ± 0.056
[19]
  Inhibition (%): 44.307 ± 3.404 %
  OD: 0.602 ± 0.037
[20]; Hep3B metastasis
  Inhibition (%): 88.13*** %
[20]; Hep3B
  Number of cell metastases: 70 ± 75.82
